One series concerns SW480 cells. Briefly: Dose response in SW480. In kind it is cell-based, human. The settings on record: 2 days. The procedure:
1. Dissolve the drug at a concentration of 10 mg/ml in PBS.
3. A confluent flask of SW480 cells was treated with trypsin and the cells were suspended in growth media at concentrations of 5×10^5 cells/ml.
5. Incubate at 37° C., 5% CO2 for 2 days.

In another series the test system is normal human lymphocytes. The settings on record: 3.125-800 g/ml as printed, 2 days.
Another series has as its target TrpR (G85E) (Escherichia coli, UniProt P0A881, G85E). As to conditions: peptide expressed from pPep plasmid. The procedure: (§1) A λRTLF culture containing pTrpRep(WT), pTrpRep(T44M), pTrprG85E, and pTrpRep(None) were transformed with one of pPep(MGFLR) or pPep(MGFWR), and grown in both BTTRG and BTTRA media to an OD of 0.6 at wavelength 600 at 30° C. with shaking. Two hundred microliters of cultures assayed for β-galactosidase levels at wavelength 405 nm as described in Fenton et al (1998) BBRC 242(1):71-78.
(§2) λRTLF cultures containing one of pTrpRep(WT), pTrpRep(T44M), pTrprG85E, or pTrpRep(None) were grown in BTTRG media supplemented with one of following synthesized peptides MGFLR, MGFWR, MGRRW, FLR, FWR at a concentration of 1 mM. The cultures were grown to an OD of 0.6 at wavelength 600 at 30° C. with shaking. Two hundred microlitres of cultures assayed for -galactosidase levels at wavelength 405 as described in Fenton et al (1998) supra.

In series [1] the target is T1, TrpR(T44M) (Escherichia coli, UniProt P0A881, T44M). The settings on record: arabinose induced expression, both in the presence and absence of tryptophan.
Procedure: RNA was electophoresed through a 1% formaldehyde gel according to Sambrooke et al's Manual (1989). The gel was capillary blotted onto nitrocellulose filter paper using the standard protocols. RNA was UV crosslinked by 45 seconds of UV exposure. The filter was prehydridised for 3 hours at 65 C and then hybridised for 36 hours at 65° C. Hybridisation buffers were in accordance with Sambrook. The filter was dried at room temperature and placed in a phosphoimager cassette overnight. The filter was then scanned by Molecular Dynamics phosphoimager 400e (880 E. Argues Ave, Sunnyvale Calif. 94086).
Series [2] deals with T1, TrpR(T44M). As to conditions: peptide expressed from pPep plasmid, arabinose induced. How it is done: as §1, §2
The cultures were grown to an OD of 0.6 at wavelength 600 at 30° C. with shaking.

Series [3] has as its system R273H/P309S p53 mutant in SW480.7 cells. Briefly: RT-PCR analysis of mRNA level of p53 transactivated genes. It is filed as cell-based, Homo sapiens (human). As to conditions: ligand transfected SW480.7 compared with empty pCEP4 transfected SW480.7, RT-PCR. An excerpt:
Total RNA was collected, from two wells of one ligand transfected SW480.7 plate and one pCEP4 transfected SW480.7 plate each day on day 0, day 1, and day 2 after transfection. Thus RNA samples were harvested as SW480.7/Ligand-0 day, SW480.7/Ligand-1 day, SW480.7/Ligand-2 day, SW480.7/pCEP4-0 day, SW480.7/pCEP4-1 day, SW480.7/pCEP4-2 day. Protocol for total RNA extraction by TRIZOL® Reagent was according to that given by Life Technology:
First-Strand cDNA Synthesis • 1. For each RNA sample, combine the following reagents in a sterile 0.2-ml reaction tube:
• 2. Mix and spin the tube briefly. • 3. Incubate the tube at 70° C. in a thermal cycler for 2 min. • 4. Spin the tube briefly to collect contents at the bottom. Keep tube at room temperature. • 5. Add the following to each reaction tube:
• 6. Gently vortex and spin the tubes briefly. • 7. Incubate the tubes at 42° C. for 1 hr in an air incubator or cycler. • 8. Add 40 μl TE buffer (10 mM Tris (pH7.6), 1 mM EDTA) to dilute the first-strand reaction product. • 9. Heat tubes at 72° C. for 7 min to inactivate reverse transcriptase. • 10. Samples can be stored at −20° C. for up to three months. cDNA Amplification by PCR • 1. Preheat the PCR thermal cycler to 95° C. • 2. For each reaction, 5 μl of diluted first-strand cDNA and 5 μl of deionized water are added to a labeled 0.2-ml reaction tube. • 3. Prepare a master mix for all reaction tubes, plus one additional tube. For each reaction:
• 4. Mix by vortexing and spin the tube briefly. • 5. Aliquot 40 μl of the PCR Master Mix into each tube from Step 2. • 6. Cap the tube, and place it in the preheated thermal cycler. • 7. PCR was carried out using the following cycling parameters:
• 8. Electrophoreses 5 μl of each PCR reaction alongside 0.1 μg of 1-kb DNA ladder on a 1.2% agarose/EtBr gel in 1× TBE buffer. Results

Another series deals with Saos-2 cells. Briefly: Validation of selected peptide ligand: cell proliferation/death after transfection. The settings on record: Saos-2 (p53 null), ligand expressed from pCEP4 plasmid, without puromycin selection. It is filed as cell-based, Homo sapiens (human). The procedure:
(§3) Cells SW480.7, U-2OS, and Sa-os2 were transfected with peptide ligand and pCEP4 parallelly using the calcium phosphate method.
(§4) After transfection, cells were cultured without drug selection and diluted at the ratio of 1:100 every five days. Cell proliferation status was closely observed until ligand transfected SW480.7 cells died out. Life staining with 0.4% trypan blue was applied to determine the death of the cells. Dead cells can not exclude the dye thus were stained blue. Living cells can pump the dye outside thus were not stained.

Another series has as its system U2-OS cells. Described as above. It is filed as cell-based, Homo sapiens (human). The settings on record: U2-OS (wild type p53), ligand expressed from pCEP4 plasmid, without puromycin selection. How it is done: as §3, §4
A further series concerns SW480.7 cells. Described as above. In kind it is cell-based, Homo sapiens (human). The settings on record: SW480.7, ligand expressed from pCEP4 plasmid, 15 days without puromycin selection. The procedure:
as §3, §4

Starred links: 1 amine or outer side, 2 acyl side, 3 side chain; linkers in the order of their positions; H or OH if unused. Residues, ends and D or L forms follow the SMILES beside them. Groups on a side chain read outwards from the residue. *: point of attachment. Pteroyl = Nc1nc2ncc(CNc3ccc(C(=O)*)cc3)nc2c(=O)[nH]1; γGlu = O=C(O)[C@H](CCC(=O)[*:2])N[*:1]

Procedure for normal human lymphocytes: Growth media used is the RPMI-1640 (Gibco Laboratories, Grand Island, N.Y.) supplemented with 25 mM Hepes buffer, 10% FBS serum (Gibco), 100 U/ml penicillin/streptomycin, 50 μg/ml gentamycin, 2 mM L-glutamin, 1× nonessential amino acids (Gibco)
In a 50-ml centrifugation tube, add 10 ml of Lymphoprep™. 2. Mix 15 ml blood and 15 ml HBSS-buffer (containing heparin). 3. Carefully add the blood mixture from step 2, to the tubes containing Lymphoprep™ without mixing the phases. 4. Centrifuge at 450 g at room temperature for 45 min. 5. Isolate the Buffy-coat layer containing the PBMC (peripheral blood mononuclear cells), and place in a fresh tube. 6. Add 7 ml HBSS-buffer to the tube to wash the PBMC. 7. Centrifuge 5-10 min 600 g. 8. Remove the supernatant and wash the PBMC again with a total of 10-ml HBSS-. 9. Suspend the cells in complete media RPMI 1640. Incubate the cells in a small culture flask for 1 hour at 37° C. 10. Remove the unattached cells (lymphocytes) from the small culture flask and dilute the cells to a concentration of 5×10^5 cell/ml. 11. Dissolve drug at 10 mg/ml in PBS. 12. Add 100 μl of growth media to the rest of the wells. 13. Prepare 100 l of a series of concentration of 1600, 800, 400, 200, 100, 50, 25, 12.5, 6.25 μg/ml were made. Triplicate wells were used for each concentration as well as the control (0.0 g/ml), for each of Drug1, 2 and 3. 14. […]

For `CSCC[C@H](N)C(=O)NCC(=O)N[C@@H](Cc1c[nH]c2ccccc12)C(=O)N[C@@H](CS)C(=O)N[C@H](C(=O)N[C@@H](CCCCNC(=O)CC[C@H](NC(=O)c1ccc(NCc2cnc3nc(N)[nH]c(=O)c3n2)cc1)C(=O)O)C(=O)O)[C@@H](C)O` [Drug 2, MGWCT-K-Folic] (H-MGWCTK([γGlu-Pteroyl])-OH; N-terminus and C-terminus assumed), the “Activity on metastatic cancer cells SW480 (number of surviving cells)” value with SW480 cells (3.125-800 μg/ml) was “best results”. For the same compound, in the series with SW480 cells (SW480 cells), the “IC50 as molar amount per well” value is 0.0257 μmol/well. In addition, the “Effect on normal human lymphocytes (number of surviving cells)” value in the series on normal human lymphocytes is recorded as “no effect”.
Consider MGFLR, for which the “Restoration of TrpR mutant G85E function (β-galactosidase activity)” value on TrpR (G85E) was “did not restore”. In addition, on TrpR(T44M) [1], the “Transcription of LacZ” value is given as “repressed” and the “Transcription of PheS” value is recorded as “repressed”. Besides, on TrpR(T44M) [2], the “Restoration of TrpR(T44M) function (β-galactosidase activity)” value is given as “restored TrpR(T44M) function”.
In the case of MGFWR, the “Restoration of TrpR mutant G85E function (β-galactosidase activity)” value at TrpR (G85E) was “did not restore”. The “Restoration of TrpR(T44M) function (β-galactosidase activity)” value on TrpR(T44M) [2] is reported as “restored TrpR(T44M) function”.
As to “MGWCT (peptide derivative) [Drug 3, Penta-peptide, no folate conjugation]”, in [3], the “mRNA level of 14-3-3σ” value is “much higher”, the “mRNA level of CD95” value is on record as “much higher” and the “mRNA level of p21 (WAF1/Cip1)” value was “much higher”. Further, the “Cell status after transfecting the ligand” value (“Cell status” below) with Saos-2 cells was “growing well”. Also, in the series on U2-OS cells, the “Cell status” value is listed as “growing well”. For the same compound, the “Cell status” value in the series on SW480.7 cells is “could no longer attach to the wall and died”.

For the origin of these results see patent publication US8304211B2, “Methods of screening molecular libraries and active molecules identified thereby” (priority 2002, dated 2012).
